{
  "source": "patent US20110136898A1",
  "about": "“TREATMENT OF RETINAL DEGENERATION” (UNIVERSITY COLLEGE CORK, NATIONAL UNIVERSITY OF IRELAND, …, priority 2008, published 2011)",
  "key": {"[1]": {"assay": "Lipophilicity of BP derivatives", "assay_type": "physicochemical", "conditions": "FIG. 4", "description": "(§1) FIG. 4: Is a histogram of % protection afforded by a 25 μM concentration of each BP derivative BP1 to BP6 in photoreceptor cells as a function of the lipophilicity of each derivative. (P is a logarithmic value that indicates the lipophilicity of a compound)."}, "photoreceptor cells [2]": {"test_system": "photoreceptor cells", "assay": "Retinal explant culture, SNP induced apoptosis detected by TUNEL", "assay_type": "cell-based, C57BL/6 mice", "conditions": "for Protection of photoreceptor cells from SNP induced apoptosis: retinal explants, TUNEL; for Protection of photoreceptor cells from SNP induced apoptosis / Protection of photoreceptor cells from SNP induced apoptosis at 25 μM: 300 μM SNP 24 h, 1 hour pre-treatment"}, "ganglion cells": {"test_system": "ganglion cells", "assay": "NMDA-induced excitotoxicity, acute model of Glaucoma", "assay_type": "in vivo, balb/c mice", "description": "In this model intravitreal injection of 40 mM NMDA results in the progressive loss of ganglion cells from the ganglion cell layer (GCL), accompanied by a thinning of the inner plexiform layer (IPL) over time.\nBy 48 and 72 hours post excitotoxicity the eventual loss of cells of the ONL is evident.\nFIG. 13 is a histogram of the data from FIG. 12.\n(§2) Apoptosis detection by Terminal deoxynucleotidyl transferase-mediated biotinylated UTP nick end labeling (TUNEL): Retinal explants were fixed in 10% neutral buffered formalin overnight at 4° C., followed by cryoprotection in 25% sucrose overnight at 4° C. Frozen sections (7 μm) were incubated with terminal deoxynucleotidyl transferase (MSC, Dublin, Republic of Ireland) and fluorescein-12-dUTP (Roche, Lewes, UK) according to manufacturers' instructions at 37° C. for 1 h. Sections were mounted and viewed under a fluorescence microscope (Leica DM LB2; Leica, Nussloch, Germany) using an FITC filter.\nHematoxylin staining: Eyes were fixed in 10% neutral buffered formalin overnight at 4° C., followed by cryoprotection in 25% sucrose overnight at 4° C. Frozen sections (7 μm) were stained in Hematoxylin (Sigma, Dublin, Ireland) for 10 seconds followed by a 15 minute water wash and 2-3 dips in acid alcohol. Following further washing, sections were placed in a 2% sodium bicarbonate (Sigma, Dublin, Ireland) solution for 30 seconds then dehydrated through an alcohol gradient. Sections were cleared in Histoclear (Sigma, Dublin, Ireland) for 5 minutes then mouted in DPX (BDH, VWR International Ltd., Poole, England) and viewed under a light microscope (Leica DM LB2; Leica, Nussloch, Germany).\nIntravitreal Injections: Adult balb/c mice were anaesthetised using an intraperitoneal injection of ketamine hydrochloride 35-50 mg/kg (Pharmacia, Corby, Northamptonshire, UK) and xylazine hydrochloride 5-10 mg/kg (Chanelle Pharmaceuticals, Loughrea, Co. Galway, Ireland), and animals were placed in the pronate position. […]"}, "[3]": {"assay": "Stability of BP derivatives", "assay_type": "physicochemical"}, "photoreceptor cells [4]": {"test_system": "photoreceptor cells", "assay": "Light damage model in vivo, TUNEL", "parameters": "species or system albino balb/c mice", "conditions": "for Protection from light induced retinal damage (apoptosis of photoreceptors): 200 mg/kg IP, 1 hour pre-treatment, single injection", "description": "FIG. 7: In this figure the study was extended from ex vivo cultures to the light damage model in vivo. In this acute model of retinal disease albino balb/c mice are exposed to excessive white light causing the photoreceptor cells to die by apoptosis. […] The protection extends to 48 hours with only a single injection of BP3.\nFIG. 8 is a histogram of the results from FIG. 7. TUNEL positive cells in three independent retinae were counted. Counts were performed on the central 40× field of the outer nuclear layer (ONL) and graphed with error bars (+/−standard deviation-SD).\nas §2\nLight damage model: Balb/c mice were dark adapted for 18 h prior to exposure to constant light. Mice were injected intraperitoneally with the Active 1 hour prior to light damage. Immediately prior to light exposure their pupils were dilated with 0.5% cyclopentolate under red light. Retinal light damage was induced by exposure to 2 h of cool white fluorescent light at an illumination of 5000 lux. Following exposure to constant light, animals were placed in the dark for 24 h then killed immediately by cervical dislocation. TUNEL staining was performed as described above."}, "photoreceptor cells [5]": {"test_system": "photoreceptor cells", "assay": "rd10 chronic model of retinal degeneration", "assay_type": "in vivo, rd10 mouse", "text": "In this model photoreceptor cells degenerate more slowly than the light model, over weeks rather than hours to days. Cell death is evident from postnatal day 18 (P18) and by P25 a significant loss of photoreceptor cell layers is observed. […] In this model, the central and peripheral retina degenerate at different rates. The loss of photoreceptors is greater in the central retina than the periphery between P18 and P25.\nFIG. 10: The ONL comprises two types of cell; rod photoreceptors and cone photoreceptors. […] Rhodopsin is a protein specifically found in the outer segments (OS) of rod photoreceptors. […] Peanut agglutinin (PNA) is a lectin which binds to carbohydrates found in the outer membrane of cone photoreceptors but which are absent from rods.\nFrozen sections (7 μm) were blocked with 0.1% bovine serum albumin (BSA) in 0.1% tween/PBS for 1 hour at room temperature. Sections were incubated with anti-rhodopsin antibody (LAB VISION Corporation, Fremont, Calif., USA) overnight at 4° C. Sections were washed and incubated with FITC conjugated secondary mouse antibody (Dako, Glostrup, Denmark) for 1 hour at room temperature. Following further washes, sections were mounted and viewed under a fluorescence microscope (Leica DM LB2; Leica, Nussloch, Germany) using a FITC filter.\nFrozen sections (7 μm) were blocked with 0.1% bovine serum albumin (BSA) in 0.1% tween/PBS for 30 minutes at room temperature. Sections were incubated with rhodamine conjugated PNA (Invitrogen, Dun Laoghaire, Ireland) for 20 minutes at room temperature as per manufacturers' instructions. Sections were mounted and viewed under a fluorescence microscope (Leica DM LB2; Leica, Nussloch, Germany) using a TRITC filter.\nFrozen sections (7 μm) were stained in Hematoxylin (Sigma, Dublin, Ireland) for 10 seconds followed by a 15 minute water wash and 2-3 dips in acid alcohol. Following further washing, sections were placed in a 2% sodium bicarbonate (Sigma, Dublin, Ireland) solution for 30 seconds then dehydrated through an alcohol gradient. Sections were cleared in Histoclear (Sigma, Dublin, Ireland) for 5 minutes then mouted in DPX (BDH, VWR International Ltd., Poole, England) and viewed under a light microscope (Leica DM LB2; Leica, Nussloch, Germany).\nIt is a better model of the slow progression of typical human autosomal recessive RP than the acute light model as photoreceptor cells are lost over a period of weeks rather than days. Loss of photoreceptors in the rd10 mouse begins at approximately 2 weeks of age, with the peak of photoreceptor death occurring at postnatal day (P) 25."}, "photoreceptor cells [6]": {"test_system": "photoreceptor cells", "assay": "SNP challenge in photoreceptor cells, protection by BP derivatives", "assay_type": "cell-based", "description": "FIG. 2: Is a histogram of results showing the effectiveness of a 25 μM concentration of each of the BP derivatives BP-1 to BP6 against increasing concentrations of SNP in photoreceptor cells. Error bars are +/−standard deviation-SD.\nas §1"}, "[7]": {"conditions": "200 mg/kg 1 hour prior to 40 mM NMDA injection, 48 and 72 hours post insult"}},
  "note": "Entries after “also recorded” stand apart in the source; their conditions may differ.",
  "data": [
    {"smiles": "COc1cc2c(cc1OC(C)=O)CCC(C)(C)O2", "note": "[BP1]", "values": [
      {"measurement": "Lipophilicity (P), rank order", "setting": "[1]", "result": "BP1<BP2<BP3=BP5=BP6<BP4"}
    ]},
    {"smiles": "COc1cc2c(cc1OC(=O)c1ccccc1)CCC(C)(C)O2", "note": "[BP5]", "values": [
      {"measurement": "Lipophilicity (P), rank order", "setting": "[1]", "result": "BP1<BP2<BP3=BP5=BP6<BP4"}
    ]},
    {"smiles": "COc1cc2c(cc1OC(=O)c1ccccc1F)CCC(C)(C)O2", "note": "[BP6]", "values": [
      {"measurement": "Lipophilicity (P), rank order", "setting": "[1]", "result": "BP1<BP2<BP3=BP5=BP6<BP4"}
    ]},
    {"smiles": "C#CC1(O)CC[C@H]2[C@@H]3CCC4=CC(=O)CC[C@@H]4[C@H]3CC[C@@]21CC", "note": "(mixture of isomers) [norgestrel, reference compound]", "values": [
      {"measurement": "Protection of photoreceptor cells from SNP induced apoptosis", "setting": "photoreceptor cells [2]", "result": "protected"}
    ]},
    {"smiles": "COc1cc2c(cc1O)CCC(C)(C)O2", "note": "[BP, 3,4-dihydro-6-hydroxy-7-methoxy-2,2-dimethyl-1(2H)-benzopyran]", "values": [
      {"measurement": "Protection of photoreceptor cells from SNP induced apoptosis at 25 μM", "setting": "photoreceptor cells [2]; FIGS. 5 and 6", "result": "effective"},
      {"measurement": "Protection of photoreceptor cells from SNP induced apoptosis", "setting": "photoreceptor cells [2]", "result": "protect photoreceptor cells from SNP induced apoptosis"}
    ]},
    {"smiles": "CCCCC(C)C(=O)Oc1cc2c(cc1OC)OC(C)(C)CC2", "note": "(centres unmarked) [BP3]", "values": [
      {"measurement": "Lipophilicity (P), rank order", "setting": "[1]", "result": "BP1<BP2<BP3=BP5=BP6<BP4"},
      {"measurement": "Protection of photoreceptor cells from SNP induced apoptosis at 25 μM", "setting": "photoreceptor cells [2]; FIGS. 5 and 6", "result": "effective"},
      {"measurement": "Concentration at which BP3 is equally as effective, times lower than BP", "setting": "photoreceptor cells [2]; SNP induced apoptosis, FIGS. 5 and 6", "result": 10, "unit": "times"},
      {"measurement": "Protection of photoreceptor cells from SNP induced apoptosis", "setting": "photoreceptor cells [2]", "result": "protect photoreceptor cells from SNP induced apoptosis"},
      {"measurement": "Protection of photoreceptor cells from SNP induced apoptosis", "setting": "photoreceptor cells [2]; listed as BP-3", "result": "inhibiting apoptosis; also recorded: better protection"},
      {"measurement": "Ganglion cell loss from the GCL", "setting": "ganglion cells; [7]", "result": "significantly attenuates"},
      {"measurement": "IPL thinning", "setting": "ganglion cells; [7]", "result": "significantly attenuates"},
      {"measurement": "Protection from NMDA-induced cell death (TUNEL positive cells, all retinal layers)", "setting": "ganglion cells; 200 mg/kg I.P. 1 hour prior to NMDA injection, 4, 24, 48 and 72 hours", "result": "significantly protects retinal cells in all layers at all time points examined; also recorded: significant protection"},
      {"measurement": "Stability of the compound", "setting": "[3]", "result": "far more stable than BP4"},
      {"measurement": "Protection from light induced retinal damage (apoptosis of photoreceptors)", "setting": "photoreceptor cells [4]", "result": "protects from the retinal damage observed"},
      {"measurement": "Protection from light induced retinal damage (apoptosis of photoreceptors)", "setting": "photoreceptor cells [4]; listed as BP-3", "result": "protected"},
      {"measurement": "Protection from light induced cell death in the central retina (TUNEL positive cells, ONL)", "setting": "photoreceptor cells [4]; at 24, 48 and 72 hours, 200 mg/kg, FIG. 8", "result": "approx 40%"},
      {"measurement": "Protection at 72 hours post light damage", "setting": "photoreceptor cells [4]; second dose of 200 mg/kg at 24 hours post light damage", "result": "significant protection"},
      {"measurement": "Time to which protection extends", "setting": "photoreceptor cells [4]; single injection of 200 mg/kg, post light damage", "result": 48, "unit": "h"},
      {"measurement": "Cone cells in the ONL (PNA staining)", "setting": "photoreceptor cells [5]; alternate days from P18 to P25", "result": "more cone cells"},
      {"measurement": "Rhodopsin positive cells (rods) in the ONL compared to vehicle", "setting": "photoreceptor cells [5]; alternate days from P18 to P25, immunofluorescent staining", "result": "more rhodopsin positive cells remain"},
      {"measurement": "Protection from photoreceptor cell death in the ONL", "setting": "photoreceptor cells [5]; injected daily with 200 mg/kg, P18 to P25, 200 mg/kg", "result": "protection from photoreceptor cell death in the ONL; also recorded: areas of the retina are protected"},
      {"measurement": "Protection of retinal areas, alternate-day injection versus daily injection", "setting": "photoreceptor cells [5]; injection on alternate days, all retinal areas", "result": "same level of protection as a daily injection regimen"},
      {"measurement": "Inhibition of apoptosis in retinal cells", "setting": "photoreceptor cells [6]", "result": "inhibiting apoptosis"}
    ]},
    {"smiles": "COc1cc2c(cc1OC(=O)C(C)(C)C)CCC(C)(C)O2", "note": "[BP2]", "values": [
      {"measurement": "Lipophilicity (P), rank order", "setting": "[1]", "result": "BP1<BP2<BP3=BP5=BP6<BP4"}
    ]}
  ]
}
